The values that follow come from publication PMC4437653, “Biochemical, Kinetic, and Spectroscopic Characterization of Ruegeria pomeroyi DddW—A Mononuclear Iron-Dependent DMSP Lyase” (PLoS ONE, 2015).

For series [1], the target named is T1, DddW (Ruegeria pomeroyi, UniProt Q5LW89, H83A).
T1 construct: E. coli BL21Star DE3 pLysS; EDTA-treated apo enzyme loaded with metal; homodimer; cloning primers encode MTAMLDSF at the N-terminus and RFTASA at the C-terminus
The experiment in a line: HPLC of acrylate product at […] nm, […] min end point. The note with it: 2 uM enzyme, 2 uM Fe(II), 10 mM DMSP, anaerobic. The format is biochemical.

Series [2] deals with T2, DddW (Ruegeria pomeroyi, UniProt Q5LW89, E87A).
T2 construct: E. coli BL21Star DE3 pLysS; EDTA-treated apo enzyme loaded with metal; homodimer; cloning primers encode MTAMLDSF at the N-terminus and RFTASA at the C-terminus
T2 sequence (Q5LW89 whole entry E87A): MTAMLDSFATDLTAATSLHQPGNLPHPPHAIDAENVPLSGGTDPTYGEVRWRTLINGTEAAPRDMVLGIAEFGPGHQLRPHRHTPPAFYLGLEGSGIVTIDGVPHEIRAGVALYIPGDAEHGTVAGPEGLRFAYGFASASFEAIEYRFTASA
Kind of series: HPLC of acrylate product at […] nm, […] min end point. The format is biochemical. The conditions noted are these: 2 uM enzyme, 2 uM Fe(II), 10 mM DMSP, anaerobic.

Series [3] addresses T3, DddW (Ruegeria pomeroyi, UniProt Q5LW89, H81A).
T3 construct: E. coli BL21Star DE3 pLysS; EDTA-treated apo enzyme loaded with metal; homodimer; cloning primers encode MTAMLDSF at the N-terminus and RFTASA at the C-terminus
Kind of series: HPLC of acrylate product at […] nm, […] min end point. The conditions noted are these: 2 uM enzyme, 2 uM Fe(II), 10 mM DMSP, anaerobic. The format is biochemical.

Series [4] has as its target T4, DddW (Ruegeria pomeroyi, UniProt Q5LW89, H121A).
T4 construct: E. coli BL21Star DE3 pLysS; EDTA-treated apo enzyme loaded with metal; homodimer; cloning primers encode MTAMLDSF at the N-terminus and RFTASA at the C-terminus
The experiment in a line: HPLC of acrylate product at […] nm, […] min end point. The note with it: 2 uM enzyme, 2 uM Fe(II), 10 mM DMSP, anaerobic. The format is biochemical.

Substrate in the series “purified protein”: C[S+](C)CCC(=O)[O-]
Kind of series: purified protein. It counts as biochemical, Ruegeria pomeroyi. The note with it: 2 uM apo-DddW with 2 uM Fe(II), pH 8.0, 50 mM HEPES, 20 mM NaCl, room temperature, anaerobic, DMSP 0.5-35 mM.

Series [5] concerns the molecule itself. Kind of series: SEC; as-isolated apo-DddW (19 mg/mL) on Superdex 200 16/600 in storage buffer (50 mM HEPES pH 7.5, 100 mM NaCl, 10% glycerol), 0.6 mL/min; mass by comparison with standards. (Size exclusion chromatography separates by hydrodynamic size, large species first.)

As a reminder, the Km is the concentration of substrate that gives half-maximal velocity. Broadly, the kcat is the maximal rate divided by the concentration of active sites. The term stoichiometry N denotes a count of units in the complex or per binding partner.

T1 sequence (Q5LW89 whole entry H83A): as the sequence (Q5LW89 whole entry E87A) above, with H83A, A87E counted along it
T4 sequence (Q5LW89 whole entry H121A): as the sequence (Q5LW89 whole entry E87A) above, with A87E, H121A counted along it
T3 sequence (Q5LW89 whole entry H81A): as the sequence (Q5LW89 whole entry E87A) above, with H81A, A87E counted along it

For the molecule `C[S+](C)CCC(=O)[O-]` [DMSP], the “no acrylate product formed” value at DddW [1], at DddW [2], on DddW [3] and on DddW [4] was “none of the DddW mutants formed the acrylate product compared to the wild-type enzyme” throughout.

B1: Ruegeria pomeroyi DSS-3 DddW (DMSP lyase), N-terminally His-tagged, apo form (enzyme, UniProt Q5LW89 1-152, looked up)
chain: MTAMLDSFATDLTAATSLHQPGNLPHPPHAIDAENVPLSGGTDPTYGEVRWRTLINGTEAAPRDMVLGIAEFGPGHQLRPHRHTPPEFYLGLEGSGIVTIDGVPHEIRAGVALYIPGDAEHGTVAGPEGLRFAYGFASASFEAIEYRFTASA
notes: DddW, DMSP lyase of Ruegeria pomeroyi DSS-3 (locus SPO0453), 16.9 kDa without tag; No removal of the His10 tag is described; also called apo-DddW; SPO0453; source: E. coli BL21Star DE3 pLysS, purified (Ni-NTA), dialysed against EDTA to give apo-DddW
Regarding B1, in the series “purified protein”, the Michaelis-Menten constant (Km) is 8.68 ± 0.73 mM and the kcat was determined as 18.25 s⁻¹. Also, in series [5], the “stoichiometry N” value is 2.
